Data set [1] deals with T1, ABCB1 (P-glycoprotein) (Homo sapiens, UniProt P08183). Nature of the data set: TP_TRANSPORTER: inhibition of Digoxin transepithelial transport (basal to apical)(Digoxin: 5 uM, 6beta-hydroxycortisol: 100 uM) in Caco-2 cells. Format: functional, cell-based. To be noted: Caco-2, probe digoxin. (Caco-2 monolayers are a common model of the intestinal barrier.)
Data set [2] addresses T1, ABCB1 (P-glycoprotein). Nature of the data set: TP_TRANSPORTER: inhibition of Digoxin transepithelial transport (basal to apical) (Digoxin: 5 uM, S-mephenytoin: 100 uM) in Caco-2 cells. The settings on record: Caco-2, probe digoxin. Format: functional, cell-based.
Data set [3] concerns the target T2, ATP-dependent translocase ABCB1 (Homo sapiens, UniProt P08183). Briefly: TP_TRANSPORTER: inhibition of Digoxin transepithelial transport (basal to apical)(Digoxin: 5 uM, 1-hydroxymidazolam: 100 uM) in Caco-2 cells. It is filed as functional, cell-based. The settings on record: caco-2, 100 µM.
Data set [4] addresses T2, ATP-dependent translocase ABCB1. Nature of the data set: TP_TRANSPORTER: transepithelial transport (basal to apical) in MDR1-expressing LLC-PK1 cells. It is filed as functional, cell-based. The settings on record: pig.
In data set [5] the target is T1, ABCB1 (P-glycoprotein). Nature of the data set: TP_TRANSPORTER: inhibition of Digoxin transepithelial transport (basal to apical) (Digoxin: 5 uM, Erythromycin: 100 uM) in Caco-2 cells. It is filed as functional, cell-based. The settings on record: Caco-2, probe digoxin.
Data set [6] deals with T1, ABCB1 (P-glycoprotein). Nature of the data set: TP_TRANSPORTER: inhibition of Digoxin transepithelial transport (basal to apical) (Digoxin: 5 uM, Lovastatin: 100 uM) in Caco-2 cells. Format: functional, cell-based. To be noted: Caco-2, probe digoxin.
Data set [7] concerns the target T1, ABCB1 (P-glycoprotein). Briefly: TP_TRANSPORTER: inhibition of Digoxin transepithelial transport (basal to apical)(Digoxin: 5 uM, Midazolam: 100 uM) in Caco-2 cells. Format: functional, cell-based. The settings on record: Caco-2, probe digoxin.
The target in data set [8] is T1, ABCB1 (P-glycoprotein). Briefly: TP_TRANSPORTER: inhibition of Digoxin transepithelial transport (basal to apical)(Digoxin: 5 uM, Tamoxifen: 100 uM) in Caco-2 cells. Format: functional, cell-based. The settings on record: Caco-2, probe digoxin.
In data set [9] the target is T1, ABCB1 (P-glycoprotein). Nature of the data set: TP_TRANSPORTER: inhibition of Digoxin transepithelial transport (basal to apical)(Digoxin: 5 uM, Terfenadine: 10 uM) in Caco-2 cells. To be noted: Caco-2, probe digoxin. Format: functional, cell-based.
For data set [10], the target named is T3, ATP-dependent translocase ABCB1 (Mus musculus, UniProt P21447). Nature of the data set: TP_TRANSPORTER: no change in plasma concentration in mdr1a(-/-) mouse. It is filed as functional, organism-based. The settings on record: in vivo.
Data set [11] has as its target T3, ATP-dependent translocase ABCB1. Nature of the data set: TP_TRANSPORTER: no change in liver concentration in mdr1a(-/-) mouse. Format: functional, organism-based. To be noted: in vivo.
Data set [12] shares this target. Briefly: TP_TRANSPORTER: no change in kidney concentration in mdr1a(-/-) mouse. Format: functional, organism-based. The settings on record: in vivo.

T3 sequence (P21447 whole entry): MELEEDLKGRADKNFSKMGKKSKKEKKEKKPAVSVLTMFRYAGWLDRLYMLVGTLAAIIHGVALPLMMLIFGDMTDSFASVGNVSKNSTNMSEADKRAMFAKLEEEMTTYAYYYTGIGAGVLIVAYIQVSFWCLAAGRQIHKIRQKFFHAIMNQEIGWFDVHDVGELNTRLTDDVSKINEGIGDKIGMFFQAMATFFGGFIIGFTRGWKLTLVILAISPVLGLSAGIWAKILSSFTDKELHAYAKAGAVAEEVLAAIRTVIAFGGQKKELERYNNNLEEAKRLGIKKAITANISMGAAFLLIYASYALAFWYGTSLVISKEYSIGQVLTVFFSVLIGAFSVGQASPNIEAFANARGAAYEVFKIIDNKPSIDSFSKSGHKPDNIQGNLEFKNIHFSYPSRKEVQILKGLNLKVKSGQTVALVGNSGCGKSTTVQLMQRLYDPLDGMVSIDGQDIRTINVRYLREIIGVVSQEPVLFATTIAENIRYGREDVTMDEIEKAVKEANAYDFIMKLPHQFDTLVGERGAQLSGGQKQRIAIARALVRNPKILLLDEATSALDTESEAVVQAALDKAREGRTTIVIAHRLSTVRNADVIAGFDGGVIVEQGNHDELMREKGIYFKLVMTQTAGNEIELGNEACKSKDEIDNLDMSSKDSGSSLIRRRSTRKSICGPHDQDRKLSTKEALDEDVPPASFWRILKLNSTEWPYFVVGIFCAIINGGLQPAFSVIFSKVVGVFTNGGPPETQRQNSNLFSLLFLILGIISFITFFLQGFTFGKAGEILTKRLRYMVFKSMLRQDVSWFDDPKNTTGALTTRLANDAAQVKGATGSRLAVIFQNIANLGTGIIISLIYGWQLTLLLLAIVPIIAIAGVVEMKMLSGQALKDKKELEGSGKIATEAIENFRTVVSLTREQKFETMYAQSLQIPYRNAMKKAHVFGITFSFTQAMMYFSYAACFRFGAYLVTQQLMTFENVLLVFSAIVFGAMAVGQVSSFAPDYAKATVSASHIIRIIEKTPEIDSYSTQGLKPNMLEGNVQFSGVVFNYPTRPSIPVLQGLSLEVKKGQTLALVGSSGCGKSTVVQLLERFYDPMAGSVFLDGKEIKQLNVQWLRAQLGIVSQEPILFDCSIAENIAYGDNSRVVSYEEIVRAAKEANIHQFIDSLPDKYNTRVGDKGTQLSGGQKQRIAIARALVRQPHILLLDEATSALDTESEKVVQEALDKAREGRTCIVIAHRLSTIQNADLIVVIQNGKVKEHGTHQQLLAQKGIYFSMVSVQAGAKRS
T2 sequence (P08183 whole entry): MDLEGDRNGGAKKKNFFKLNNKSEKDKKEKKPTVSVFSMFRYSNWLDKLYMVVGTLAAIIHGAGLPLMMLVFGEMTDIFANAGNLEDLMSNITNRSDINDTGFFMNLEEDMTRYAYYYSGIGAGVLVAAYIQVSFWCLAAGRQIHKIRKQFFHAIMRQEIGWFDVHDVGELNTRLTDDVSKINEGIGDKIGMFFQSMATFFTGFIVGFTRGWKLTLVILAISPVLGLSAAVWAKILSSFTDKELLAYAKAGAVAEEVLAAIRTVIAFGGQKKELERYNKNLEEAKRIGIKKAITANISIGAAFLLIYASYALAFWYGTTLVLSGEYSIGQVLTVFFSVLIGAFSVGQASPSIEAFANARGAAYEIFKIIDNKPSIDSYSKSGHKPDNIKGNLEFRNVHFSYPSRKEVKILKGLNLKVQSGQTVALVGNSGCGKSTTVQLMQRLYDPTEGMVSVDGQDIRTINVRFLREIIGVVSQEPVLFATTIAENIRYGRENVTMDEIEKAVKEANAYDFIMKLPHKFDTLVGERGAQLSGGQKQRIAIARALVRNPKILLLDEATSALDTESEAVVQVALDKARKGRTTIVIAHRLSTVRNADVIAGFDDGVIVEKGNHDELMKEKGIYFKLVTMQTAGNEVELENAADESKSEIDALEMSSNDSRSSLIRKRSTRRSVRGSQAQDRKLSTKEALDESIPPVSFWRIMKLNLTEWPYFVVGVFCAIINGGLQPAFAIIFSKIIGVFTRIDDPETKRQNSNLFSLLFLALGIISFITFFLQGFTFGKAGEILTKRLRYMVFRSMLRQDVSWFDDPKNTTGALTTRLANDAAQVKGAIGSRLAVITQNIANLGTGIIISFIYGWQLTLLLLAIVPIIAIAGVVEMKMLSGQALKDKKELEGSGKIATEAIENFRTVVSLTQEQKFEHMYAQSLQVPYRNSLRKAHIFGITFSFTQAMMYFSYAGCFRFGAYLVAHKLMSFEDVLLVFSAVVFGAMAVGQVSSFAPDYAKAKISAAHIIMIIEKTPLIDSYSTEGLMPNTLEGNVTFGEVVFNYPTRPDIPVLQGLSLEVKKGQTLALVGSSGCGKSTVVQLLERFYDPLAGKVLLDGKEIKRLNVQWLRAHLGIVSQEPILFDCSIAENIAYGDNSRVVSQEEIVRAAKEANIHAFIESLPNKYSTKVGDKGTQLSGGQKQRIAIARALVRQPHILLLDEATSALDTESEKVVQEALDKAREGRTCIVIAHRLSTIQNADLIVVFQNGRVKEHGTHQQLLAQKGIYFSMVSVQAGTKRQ
T1 sequence (P08183 whole entry): as above

As for `C[C@]12CCC(=O)C=C1[C@H](O)C[C@@H]1[C@@H]2[C@@H](O)C[C@@]2(C)[C@H]1CC[C@]2(O)C(=O)CO`, the inhibition – broadly, the change of the read-out against control, counted positive when it falls – at 100 µM in data set [1] was 57%.
As to `CC[C@@]1(c2ccccc2)NC(=O)N(C)C1=O`, the inhibition at 100 µM in data set [2] was 42%.
For the compound `OCc1ncc2n1-c1ccc(Cl)cc1C(c1ccccc1F)=NC2` [ALPHA-HYDROXY-MIDAZOLAM], in data set [3], the Activity is listed as 63.
Turning to `N=C(N)N1CCc2ccccc2C1` [DEBRISOQUIN], the Activity entry in data set [4] is “substrate [+]”.
Turning to `CC[C@H]1OC(=O)[C@H](C)[C@@H](O[C@H]2C[C@@](C)(OC)[C@@H](O)[C@H](C)O2)[C@H](C)[C@@H](O[C@@H]2O[C@H](C)C[C@H](N(C)C)[C@H]2O)[C@](C)(O)C[C@@H](C)C(=O)[C@H](C)[C@@H](O)[C@]1(C)O` [ERYTHROMYCIN], the inhibition at 100 µM in data set [5] was found to be 101%.
In the case of `CC[C@H](C)C(=O)O[C@H]1C[C@@H](C)C=C2C=C[C@H](C)[C@H](CC[C@@H]3C[C@@H](O)CC(=O)O3)[C@H]21` [LOVASTATIN], in [6], the inhibition at 100 µM was determined as 65%.
As to `Cc1ncc2n1-c1ccc(Cl)cc1C(c1ccccc1F)=NC2` [MIDAZOLAM], in [4], the Activity entry is “is not a substrate [-]”. The inhibition at 100 µM in data set [7] is 74%.
For `COC(=O)C1=C(C)NC(C)=C(C(=O)OC)C1c1ccccc1[N+](=O)[O-]` [NIFEDIPINE], the Activity result in [4] is “is not a substrate [-]”.
In the case of `CC/C(=C(\c1ccccc1)c1ccc(OCCN(C)C)cc1)c1ccccc1` [TAMOXIFEN], the inhibition at 100 µM in [8] stood at 86%.
Take `CC(C)(C)c1ccc(C(O)CCCN2CCC(C(O)(c3ccccc3)c3ccccc3)CC2)cc1` (centres undefined) [TERFENADINE]: the inhibition at 10 µM in [9] is 112%.
Regarding IVERMECTIN, the Activity entry in [10], in data set [11] and in data set [12] was “is not a substrate [-]” in each case.

The values above are taken from ChEMBL document CHEMBL2073809, “Interrelationship between substrates and inhibitors of human CYP3A and P-glycoprotein” (Pharm Res, 1999).
